# Experimental data from patent EP0007648A1, “New acylureas with pharmaceutical activity, the process for their preparation, and pharmaceutical compositions which contain them” (Investigacion Tecnica Y Aplicada, S.A., priority 1978, dated 1980).
# Experiments:
# Platelet aggregation = assay: Anti platelet aggregation activity "ex vivo" (Born), ADP-induced aggregation after administration by gastric catheter; type: in vivo, rats, Sprage Dawley; conditions: for inhibition at 200 mg/kg: Dose 200 mg/kg p.o., rats, ADP-induced, 5 hours after administration; for anti platelet aggregation activity (in words): compared with acetilsalicilic acid given in a double dose
# From the text: Platelet aggregation is induced by ADP (adenosindiphosphate) and measured in an aggregometer(Bryston) connected to a model R Omniscriber recorder.
# lactescence of the serum = assay: Hyperlipaemia activity: lactescence of the serum after oral olive oil; type: in vivo; conditions: for Activity; Hyper Lipaemia (%): Dose 200 mg/kg orally, suspended in 10 ml/kg of olive oil, serum lactescence 6 hours after administration; for hyperlipaemia activity (in words): against clofibrate
# Procedure: For the determination of the hyperlipaemia activity the products were administered orally suspended in 10 ml/kg of olive oil evaluating the lactescence of the serum 6 hours after administration.
# in vivo = conditions: mouse, ip, NMRI male mice, suspended in Tween 80 at 1% plus CMC at 2% in physiological serum, read-out: LD 50 mg/kg. i.p. NMRI mouse
# Procedure: The products were administered via intraperitoneal, suspended in Tween 80 at 1% plus CMC at 2% in physiological serum.
# The reference standard used was phenolbutazone.
# [1] = test system: hypercholesterolaemia induced by the administration of Triton WR 1339; assay: Hypercholesterolaemia induced by Triton WR 1339 (Garattini et al.); type: in vivo; conditions: among the products examined
# From the text: To determine the hypercholesterolaemia activity tests have been conducted with hypercholesterolaemia induced by the administration of Triton WR 1339 in accordance with S. Garattini C.Morpurgo and Passerini (Experiment 12 (1956)347). The results obtained using clofibrate (ethyl […] of p-chlorophenoxyisobutiric acid), as a reference standard are shown in Table II below.
# [2] = Rattus norvegicus, Platelet, po
SMILES,inhibition at 200 mg/kg (Platelet aggregation; [2]),Activity; Hyper Lipaemia (%) (lactescence of the serum),LD50 (in vivo),anti platelet aggregation activity (in words) (Platelet aggregation),hypercholesterolaemia activity (in words) [1],hyperlipaemia activity (in words) (lactescence of the serum),"inhibition at 400 mg/kg (Platelet aggregation; Rattus norvegicus, Platelet, po, 5 h, read-out: Anti platelet aggregation p.o. % inhibition (5 hours))"
"CC(C)Cc1ccc(C(C)C(=O)NC(=O)NCN2CCOCC2)cc1 (stereo not shown) [ITA-376, N-2-(p-isobutylphenyl) propionyl-N'-morpholinomethylurea]",12.7%,"1,3%",1800 mg/kg,,,,
"CC(C)(Oc1ccc(C(=O)c2ccc(Cl)cc2)cc1)C(=O)NC(N)=O [ITA-374, N-2-[p-(p' -chlorobenzoil)phenoxy]-2-methylpropionylurea]",16.1%,"28,2%",> 3000 mg/kg,,,,
"O=C(NCN1CCOCC1)NC(=O)C(Oc1ccc(Cl)cc1)Oc1ccc(Cl)cc1 [ITA-373, N-[bis(p-chiorophenoxy)] acetyl -N'-morpholinomethylurea]",11.9%,,1700 mg/kg,,,,
"CC(C)(Oc1ccc(C(=O)c2ccc(Cl)cc2)cc1)C(=O)NC(=O)NCN1CCOCC1 [ITA-375, N-2-[p-(p'-chlorobenzoil)phenoxy]-2-methylpropionyl-N'-morpholine methylurea]",68.5%,"41,1%",950 mg/kg,stand out in their anti platelet aggregation activity,stands out for its efficacity,stand out in this activity,
"COc1ccccc1C(=O)NC(=O)NCN1CCOCC1 [ITA-418, N-(2-methoxybenzoil)-N'-morpholinomethylurea]",68%,,1100 mg/kg,,,,
"O=C(NCN1CCOCC1)NC(=O)c1cccnc1 [ITA-378, N-nicotinoil-N'-morpholino methylurea]",81.9%,"54,7%",1700 mg/kg,stand out in their anti platelet aggregation activity,,stand out in this activity,
"CC(=O)Oc1ccccc1C(=O)O [Acelylsalicilic acid, reference compound]",,,,,,,86.3%
"COc1ccc2c(c1)c(CC(=O)NC(=O)NCN1CCOCC1)c(C)n2C(=O)c1ccc(Cl)cc1 [ITA-377, N-[1-(p-chiorobenzoil) -2-methyl-5-methoxyindol-3-il]acetyl-N' -morpholinomethylurea]",5.3%,"12,6%",> 3000 mg/kg,,,,
"O=C(COc1ccc(Cl)cc1)NC(=O)NCN1CCOCC1 [ITA-372, N-(p-chlorophenoxy)acetyl N' -morpholinomethylurea]",8.1%,,300 mg/kg,,,,
"CCOC(=O)C(C)(C)Oc1ccc(Cl)cc1 [Clofibrate, ethyl esther of p-chlorophenoxyisobutiric acid, reference compound]",,"22,8%",,,,,
